Patent publication US20100168176A1, “NOVEL COMPOUNDS, PHARMACEUTICAL COMPOSITIONS CONTAINING SAME, AND METHODS OF USE FOR SAME” (FASGEN LLC, priority 2006, published 2010)
Values after ≈ are worked out from the molar mass of the structure shown.

Tests used:
[1] = test system: MCF-7 human breast cancer cells; assay: XTT cytotoxicity assay, MCF-7 (M); format: cell-based; settings: Homo sapiens, MCF7; (M) or no code; MCF-7, 72 hours
Protocol: The XTT assay is a non-radioactive alternative for the [^51Cr] release cytotoxicity assay. XTT is a tetrazolium salt that is reduced to a formazan dye only by metabolically active, viable cells. The reduction of XTT is measured spectrophotometrically as OD490-OD650.
To measure the cytotoxicity of specific compounds against cancer cells, 9×10^3 MCF-7 human breast cancer cells, obtained from the American Type Culture Collection are plated per well in 96 well plates in DMEM medium with 10% fetal bovine serum, insulin, penicillin, and streptomycin. Following overnight culture at 37° C. and 5% CO2, the compounds to be tested, dissolved in DMSO, are added to the wells in 1 μl volume at the following concentrations: 80, 40, 20, 10, 5, 2.5, 1.25, and 0.625 μg/ml in triplicate. Additional concentrations are tested if required. 1 μl of DMSO is added to triplicate wells are the vehicle control. C75 is run at 40, 20, 10, […], 10, and 5 in triplicate as positive controls.
After 72 hours of incubation, cells are incubated for 4 hours with the XTT reagent as per manufacturer's instructions (Cell Proliferation Kit II (XTT) Roche). Plates are read at OD490 and OD650 on a Molecular Devices SpectraMax Plus Spectrophotometer. Three wells containing the XTT reagent without cells serve as the plate blank. XTT data are reported as OD490-OD650. Averages and standard error of the mean are computed using SOFTmax Pro software ([…]).
The IC50 for the compounds is defined as the concentration of drug leading to a 50% reduction in OD400-OD650 compared to controls. The OD400-OD650 are computed by the SOFTmax PRO software (Molecular Devices) for each compound concentration. IC50 is calculated by linear regression, plotting the FAS activity as percent of control versus drug concentrations. Linear regression, best-fit line, r^2, and 95% confidence intervals are determined using Prism Version 3.0 (Graph Pad Software).

[2] = test system: OV; assay: XTT cytotoxicity assay, OV; format: cell-based
[3] = test system: MCF-7 human breast cancer cells; assay: [14C]acetate incorporation into total lipids; format: cell-based; settings: MCF7
Protocol: Measurement of [^14 C]acetate Incorporation into Total Lipids and Determination of IC50 of Compounds
This assay measures the incorporation of [^14C]acetate into total lipids and is a measure of fatty acid synthesis pathway activity in vitro. It is utilized to measure inhibition of fatty acid synthesis in vitro.
MCF-7 human breast cancer cells cultured as above, are plated at 5×10^4 cells per well in 24-well plates. Following overnight incubation, the compounds to be tested, solubilized in DMSO, are added at 5, 10, and 20 μg/ml in triplicate, with lower concentrations tested if necessary. DMSO is added to triplicate wells for a vehicle control. C75 is run at 5 and 10 μg/ml in triplicate as positive controls. After 4 hours of incubation, 0.25 μCi of [^14C]acetate (10 μl volume) is added to each well.
After 2 hours of additional incubation, medium is aspirated from the wells and 800 μl of chloroform:methanol (2:1) and 700 μl of 4 mM MgCl2 is added to each well. Contents of each well are transferred to 1.5 Eppendorf tubes, and spun at full-speed for 2 minutes in a high-speed Eppendorf Microcentrifuge 5415D. After removal of the aqueous (upper) layer, an additional 700 μl of chloroform:methanol (2:1) and 500 μl of 4 mM MgCl2 are added to each tube and then centrifuged for 1 minutes as above. The aqueous layer is removed with a Pasteur pipette and discarded. An additional 400 μl of chloroform:methanol (2:1) and 200 μl of 4 mM MgCl2 are added to each tube, then centrifuged and aqueous layer is discarded. The lower (organic) phase is transferred into a scintillation vial and dried at 40° C. under N2 gas. Once dried, 3 ml of scintillant (APB #NBC5104) is added and vials are counted for ^14C. The Beckman Scintillation counter calculates the average cpm values for triplicates.
The IC50 for the compounds is defined as the concentration of drug leading to a 50% reduction in [^14C]acetate incorporation into lipids compared to controls. This is determined by plotting the average cpm for each inhibitor concentration tested, performing linear regression and computing the best-fit line, r^2 values, and 95% confidence intervals. The average cpm values are computed by the Beckman scintillation counter (Model LS6500) for each compound concentration. Computation of linear regression, best-fit line, r^2, and 95% confidence intervals are calculated using Prism Version 3.0 (Graph Pad Software).

[4] = test system: FAO; assay: FAO SC 150 / FAO Max; settings: for FAO Max: at the concentration given under E18

SMILES	IC50 [1]	IC50 [2]	IC50 [3]	FAO Max: concentration at which the maximum was seen [4]	FAO SC 150 [4]	FAO Max [4]
CCCCCCCCC1(C)SC(=O)C=C1OCC(=O)NNc1ccccc1Cl (stereo not drawn) [Compound 19, (5-Methyl-5-octyl-2-oxo-thiophen-4-yloxy)-acetic-acid-N′-(2-chlorophenyl)-hydrazide]	6.1 ± 0.3 µg/mL (≈ 14.4 µM)	9.4 µg/mL (≈ 22.1 µM)	39.8 ± 12.7 µg/mL (≈ 93.6 µM)	0.125 µg/mL	Neg	90% @
CCCCCCCCC1(C)SC(=O)C=C1OCC(=O)NNC(=O)c1ccncc1 (stereo not drawn) [Compound 20]	22.5 ± 2 µg/mL (≈ 53.6 µM)	33 ± 9.1 µg/mL (≈ 78.7 µM)	17.4 µg/mL (≈ 41.5 µM)	0.125 µg/mL	Neg	89% @
